pIC50: −log10 of the molar value.
Tests used:
[1] = system: VCAM-1; assay: In Vitro VCAM-1 Assay (TNF-α stimulated HAEC or HPAEC, cell ELISA); assay type: cell-based, human; conditions: Homo sapiens, 16 h, TNF-α (1 ng/ml) stimulated HAEC or HPAEC, approximately 16 hours
Procedure, shortened: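 Primary human aortic or pulmonary endothelial cells (below passage 9) stimulated with TNF-α (1 ng/ml) plus compound (four concentrations, ≤0.25% DMSO) for about 16 h. Surface VCAM-1 detected by cell ELISA (HRP/TMB, OD 450 nm). IC50 taken as the concentration giving 50% inhibition of the TNF-α-only response.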

[2] = system: Balb/C mice; assay: Asthma Protocol (ovalbumin sensitized and challenged mice, bronchoaveolar lavage); assay type: in vivo, mouse; conditions: sc, daily dosing at 100 mg/kg from day 0–13, lavage fluid
Protocol: Balb/C mice (6–8 weeks old) are sensitized to ovalbumin (ova) (8 ug ova absorbed in 3.3 mg Alum inject) on days 0 and 5. On day 12, the mice were aerosol challenged with 0.5% ovalbumin dissolved in sterile saline for 1 hr in the AM, and then again in the PM (at least 4 hr apart). On day 14, the mice were anesthetized with ketamine/xylazine/acepromazine cocktail, exsanguinated, and then euthanized. Following blood collection, bronchoaveolar lavage was performed on each animal. Total cell counts were conducted on the lavage fluid, which was subsequently diluted with cell media 1:1. Slides of the lavage fluid were made by spinning the samples with a cytospin centrifuge. Slides were airdried and stained with x. Cell differentials of the lavage fluid were completed at the conclusion of the study. All compounds except Example 2 were well tolerated with no body weight loss throughout the course of the study. Statistical analysis involved ANOVA and Tukey-Kramer post hoc tests. Compounds were administered except where noted by subcutaneous injection once daily from day 0–13. The formulations used contained various mixtures of the following excipients (pharmasolve, cremophor RH 40, tween 80, PEG 300). See Biological Table 3

[3] = system: Male Lewis rats; assay: Rheumatoid Arthritis Protocol (rat adjuvant arthritis, paw swelling); assay type: in vivo; conditions: 60 mg/Kg/day, sq, bid, d1–14
Protocol: Male Lewis rats (150–175 g) from Charles River Laboratories were anesthetized on day 0 with 3–5% isoflurane anesthesia while the tail base was shaved and adjuvant mixture was injected. Fifty μL of adjuvant (10 mg/ml M. butyricum in mineral oil) was injected subcutaneously into two sites at the tail base. Paw swelling was monitored using a plethysmometer (UGO Basile), after shaving each leg to the level of the Achilles tendon to mark the level of immersion. A baseline paw measurement for both hindpaws was taken between d2-d5 and a second measurement was taken on day 7–8. Onset of paw swelling occurred rapidly between d9–11 and daily measurements were performed every weekday between d9 and day 15. Compounds of the invention and vehicles were dosed either prophylactically (d1–14), or therapeutically (d9–14) after swelling was confirmed. Solutions were injected subcutaneously or given orally by gavage 1–2 times per day. From day 0, rats were weighed every 2–3 days and overall health was monitored. Plasma drug levels, if desired, were measured in tail-vein derived blood samples taken on day 14. On day 15, blood samples were obtained by cardiac puncture, rats were euthanized with CO2, selected organs removed and both hindpaws were amputated and placed in 10% buffered formalin for histopathological analysis. See Biological Table 2.

pIC50 [1] | melting point | Structure (SMILES) | % Inhibition [2] [%] | % Inhibition [3] [%]
> 5.30 | 182 to 183 °C | COc1cc(OC)c(-c2cc3ccccc3n2C(=O)OC(C)(C)C)cc1/C=C/C(=O)c1ccc(C(=O)O)cc1 [Example 36, 2-{5-[3-(4-Carboxy-phenyl)-3-oxo-E-propenyl]-2,4-dimethoxy-phenyl}-indole-1-carboxylic acid tert-butyl ester] | 71 | 
> 5.30 | 123 to 124 °C | COc1cc(OCC(CO)CO)c(/C=C/C(=O)c2ccc(S(N)(=O)=O)cc2)cc1-c1cccs1 [Example 86, 4-{3E-[2-(3-Hydroxy-2-hydroxymethyl-propoxy)-4-methoxy-5-thiophen-2-yl-phenyl]-acryloyl}-benzenesulfonamide] | 48 | 
> 5.30 | 195 to 196 °C | COc1ccc(-c2cccs2)cc1/C=C/C(=O)c1ccc(C(=O)O)cc1 [Example 45, 4-[3E-(2-Methoxy-5-thiophen-2-yl-phenyl)-acryloyl]-benzoic acid] |  | 
> 5.00 | 235 °C (dec.) | COc1cc(OC)c(-c2cccs2)cc1/C=C/C(=O)c1ccc(-c2nn[nH]n2)cc1 [Example 78, 3E-(2,4-Dimethoxy-5-thiophen-2-yl-phenyl)-1-[4-(2H-tetrazol-5-yl)-phenyl]-propenone] |  | 
< 5.00 | 197 to 200 °C | COc1cc(OC(C)(C)C(=O)O)c(-c2cccs2)cc1/C=C/C(=O)c1ccc(N(C)S(C)(=O)=O)cc1 [Example 101, 2-(4-{3-[4-(Methanesulfonyl-methyl-amino)-phenyl]-3-oxo-E-propenyl}-5-methoxy-2-thiophen-2-yl-phenoxy)-2-methyl-propionic acid] |  | 
< 5.00 | 222 to 224 °C | COc1cc(OC)c(-c2nc3cccnc3[nH]2)cc1/C=C/C(=O)c1ccc(C(=O)O)cc1 [Example 76, 4-{3E-[5-(3H-Imidazo[4,5-b]pyridin-2-yl)-2,4-dimethoxy-phenyl]-acryloyl}-benzoic acid] |  | 
> 5.30 | 235 to 237 °C (dec.) | COc1cc(OCc2nc3ccccc3[nH]2)c(/C=C/C(=O)c2ccc(S(N)(=O)=O)cc2)cc1-c1cccs1 [Example 113, 4-{3E-[2-(1H-Benzoimidazol-2-ylmethoxy)-4-methoxy-5-thiophen-2-yl-phenyl]-acryloyl}-benzenesulfonamide] |  | 
> 6.00 | > 260 °C | O=C(O)c1ccc(C(=O)/C=C/c2ccc(-c3cccs3)cc2F)cc1 [Example 30, 4-[3E-(2-Fluoro-4-thiophen-2-yl-phenyl)-acryloyl]-benzoic acid] |  | 
> 5.30 | 98 to 104 °C | COc1cc(OC)c(-c2cc3ccccc3s2)cc1/C=C/C(=O)c1ccc(N)cc1 [Example 13, 1-(4-Amino-phenyl)-3E-(5-benzo[b]thiophen-2-yl-2,4-dimethoxy-phenyl)-propenone] |  | 
> 5.30 | 188 to 189 °C | COc1cc(OCc2ccccn2)c(/C=C/C(=O)c2ccc(S(N)(=O)=O)cc2)cc1-c1cccs1 [Example 114, 4-{3E-[4-Methoxy-2-(pyridin-2-ylmethoxy)-5-thiophen-2-yl-phenyl]-acryloyl}-benzenesulfonamide] |  | 
> 6.00 | 193 to 196 °C | COc1cc(OCCCN2CCOCC2)c(/C=C/C(=O)c2ccc(S(N)(=O)=O)cc2)cc1-c1cccs1 [Example 85, 4-{3E-[4-Methoxy-2-(3-morpholin-4-yl-propoxy)-5-thiophen-2-yl-phenyl]-acryloyl}-benzenesulfonamide] |  | 
 |  | COc1cc(OC)c(-c2cc3ccccc3s2)cc1/C=C/C(=O)c1ccc(C(=O)O)cc1 [Example 3, 4-[3E-(5-Benzo[b]thien-2-yl-2,4-dimethoxyphenyl)-acryloyl]-benzoic acid] | 79 | 96
< 5.00 | 199 to 201 °C | COc1cc(OCC(CO)CO)c(-c2cccs2)cc1/C=C/C(=O)c1ccc(C(=O)O)cc1 [Example 50, 4-{3E-[4-(3-Hydroxy-2-hydroxymethyl-propoxy)-2-methoxy-5-thiophen-2-yl-phenyl]-acryloyl}-benzoic acid] |  | 
> 6.00 | 193 to 195 °C | COc1cc(-c2cccs2)ccc1C(=O)/C=C/c1ccc(C(=O)O)cc1 [Example 19, 4-[3-(2-Methoxy-4-thiophen-2-yl-phenyl)-3-oxo-E-propenyl]-benzoic acid] |  | 
> 5.30 | 242 to 244 °C | O=C(O)c1ccc(C(=O)/C=C/c2ccc(F)c(-c3cccs3)c2)cc1 [Example 21, 4-[3E-{4-Fluoro-3-(thiophen-2-yl)-phenyl}-acryloyl]-benzoic acid] |  | 
< 5.00 | 212 to 214 °C (dec.) | O=C(O)c1ccc(C(=O)/C=C/c2ccc(N3CCCC3)c(-c3cccs3)c2)cc1 [Example 20, 4-[3E-(4-Pyrrolidin-1-yl-3-thiophen-2-yl-phenyl)-acryloyl]-benzoic acid] |  | 
> 5.30 | 213 to 215 °C | COc1cc(OCc2c(C)noc2C)c(/C=C/C(=O)c2ccc(C(=O)O)cc2)cc1-c1cccs1 [Example 62, 4-{3E-[2-(3,5-Dimethyl-isoxazol-4-ylmethoxy)-4-methoxy-5-thiolphen-2-yl-phenyl]-acryloyl}-benzoic acid] |  | 
> 5.30 | > 240 °C (dec.) | COc1cc(OC)c(-c2nc3ccccc3[nH]2)cc1/C=C/C(=O)c1ccc(C(=O)O)cc1.Cl [Example 70, 4-{3E-[5-(1H-Benzoimidazol-2-yl)-2,4-dimethoxy-phenyl]-acryloyl}-benzoic acid] |  | 
> 5.30 | > 260 °C | O=C(O)c1ccc(C(=O)/C=C/c2ccc(-c3cccs3)cc2)cc1 [Example 10, 4-[3E-(4-Thiophen-2-yl-phenyl)-acryloyl]-benzoic acid] |  | 
> 6.00 | 120 to 122 °C | COc1cc(OC)c(-c2cc3ccccc3n2C(=O)OC(C)(C)C)cc1/C=C/C(=O)c1ccc(S(N)(=O)=O)cc1 [Example 83, 2-{2,4-Dimethoxy-5-[3-oxo-3-(4-aminosulfonyl-phenyl)-E-propenyl]-phenyl}-indole-1-carboxylic acid tert-butyl ester] |  | 
> 6.00 | 183 to 184 °C | COc1cc(OCCN2CCOCC2)c(/C=C/C(=O)c2ccc(C(N)=O)cc2)cc1-c1cccs1 [Example 92, 4-{3E-[4-Methoxy-2-(2-morpholin-4-yl-ethoxy)-5-thiophen-2-yl-phenyl]-acryloyl}-benzamide] |  | 
> 5.30 | 201 to 202 °C (dec.) | COc1cc(OC)c(-c2csc(C)n2)cc1/C=C/C(=O)c1ccc(C(=O)O)cc1 [Example 69, 4-{3E-[2,4-Dimethoxy-5-(2-methyl-thiazol-4-yl)-phenyl]-acryloyl}-benzoic acid] |  | 
< 5.00 | > 260 °C | COc1cc(OC)c(-c2cc3ccccc3s2)cc1/C=C/C(=O)c1ccc(Nc2c(N)c(=O)c2=O)cc1 [Example 102, 3-Amino-4-{4-[3E-(5-benzo[b]thiophen-2-yl-2,4-dimethoxy-phenyl)-acryloyl]-phenylamino}-cyclobut-3-ene-1,2-dione] |  | 
< 5.00 | 135 to 137 °C | COc1cc(OC(C)(C)C(=O)O)c(-c2cccs2)cc1/C=C/C(=O)c1ccc(C(=O)O)cc1 [Example 47, 4-{3E-[4-(1-Carboxy-1-methyl-ethoxy)-2-methoxy-5-thiophen-2-yl-phenyl]-acryloyl}-benzoic acid] |  | 
> 5.30 | 67 to 71 °C | COc1cc(/C=C/C(=O)c2ccc(N)cc2)cc(-c2cccs2)c1OC [Example 11, 1-(4-Amino-phenyl)-3E-(3,4-dimethoxy-5-thiophen-2-yl-phenyl)-propenone] |  | 
> 5.30 | 238 °C (dec.) | O=C(O)c1ccc(C(=O)/C=C/c2cccc(-c3cccs3)c2)cc1 [Example 42, 4-[3E-(3-Thiophen-2-yl-phenyl)-acryloyl]-benzoic acid] |  | 
< 5.00 | > 250 °C | COc1cc(OC)c(-c2cn[nH]c2)cc1/C=C/C(=O)c1ccc(C(=O)O)cc1 [Example 74, 4-{3E-[2,4-Dimethoxy-5-(1H-pyrazol-4-yl)-phenyl]-acryloyl}-benzoic acid] |  | 
